The source made the active and inactive calls. The calls are words filed in the database; no cut-off is given here.
Assays:
Bile acid receptor = molecular target: T1, Bile acid receptor (Homo sapiens, UniProt Q96RI1); assay: Activation of human FXR LBD expressed in HEK293T cells assessed as induction of receptor activation incubated for 12 to 14 hrs by luciferase reporter gene assay; format: cell-based, HEK-293T
T1 sequence (Q96RI1 whole entry): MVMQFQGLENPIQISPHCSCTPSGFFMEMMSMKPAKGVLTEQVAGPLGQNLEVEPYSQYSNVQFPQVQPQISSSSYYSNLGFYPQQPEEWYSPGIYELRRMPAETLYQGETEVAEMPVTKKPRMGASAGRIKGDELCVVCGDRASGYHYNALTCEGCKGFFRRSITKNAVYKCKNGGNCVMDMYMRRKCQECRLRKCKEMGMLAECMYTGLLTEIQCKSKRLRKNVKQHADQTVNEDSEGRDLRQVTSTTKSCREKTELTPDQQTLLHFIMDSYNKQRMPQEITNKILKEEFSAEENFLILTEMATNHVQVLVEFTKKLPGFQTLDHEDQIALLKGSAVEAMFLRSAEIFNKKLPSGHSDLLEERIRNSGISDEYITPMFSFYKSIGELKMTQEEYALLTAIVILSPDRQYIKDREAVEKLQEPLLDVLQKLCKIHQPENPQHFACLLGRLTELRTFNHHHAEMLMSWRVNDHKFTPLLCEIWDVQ

[1] = molecular target: T2, Bile acid receptor (Homo sapiens) (UniProt Q96RI1); assay: Activation of human FXR LBD expressed in HEK293T cells assessed as induction of receptor activation at 1 uM incubated for 12 to 14 hrs by luciferase reporter gene assay relative to GW4064; format: cell-based; conditions: HEK-293T
T2 sequence (whole entry): T1 sequence (Q96RI1 whole entry)

[2] = molecular target: T2, Bile acid receptor (Homo sapiens); assay: Activation of human FXR LBD expressed in HEK293T cells assessed as induction of receptor activation at 10 uM incubated for 12 to 14 hrs by luciferase reporter gene assay; format: cell-based; conditions: HEK-293T
[3] = molecular target: T3, Peroxisome proliferator-activated receptor delta (Homo sapiens) (UniProt Q03181); assay: Activation of human PPAR-delta LBD expressed in HEK293T cells assessed as induction of receptor activation at 10 uM incubated for 12 to 14 hrs by luciferase reporter gene assay; format: cell-based; conditions: HEK-293T
T3 sequence (whole entry): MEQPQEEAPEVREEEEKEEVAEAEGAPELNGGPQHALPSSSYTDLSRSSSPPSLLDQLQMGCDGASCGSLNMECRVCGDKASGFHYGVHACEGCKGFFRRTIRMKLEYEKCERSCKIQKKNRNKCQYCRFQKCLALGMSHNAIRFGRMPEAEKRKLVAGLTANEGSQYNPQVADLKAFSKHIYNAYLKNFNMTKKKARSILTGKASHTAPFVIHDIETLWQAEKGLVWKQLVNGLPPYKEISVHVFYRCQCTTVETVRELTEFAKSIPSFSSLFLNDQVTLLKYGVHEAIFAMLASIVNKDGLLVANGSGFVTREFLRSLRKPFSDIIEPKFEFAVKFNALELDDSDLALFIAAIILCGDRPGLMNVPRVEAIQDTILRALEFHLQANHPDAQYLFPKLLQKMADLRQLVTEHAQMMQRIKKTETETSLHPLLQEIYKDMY

[4] = molecular target: T4, Retinoic acid receptor alpha (Homo sapiens) (UniProt P10276); assay: Activation of human RAR-alphaLBD expressed in HEK293T cells assessed as induction of receptor activation at 10 uM incubated for 12 to 14 hrs by luciferase reporter gene assay; format: cell-based; conditions: HEK-293T
T4 sequence (whole entry): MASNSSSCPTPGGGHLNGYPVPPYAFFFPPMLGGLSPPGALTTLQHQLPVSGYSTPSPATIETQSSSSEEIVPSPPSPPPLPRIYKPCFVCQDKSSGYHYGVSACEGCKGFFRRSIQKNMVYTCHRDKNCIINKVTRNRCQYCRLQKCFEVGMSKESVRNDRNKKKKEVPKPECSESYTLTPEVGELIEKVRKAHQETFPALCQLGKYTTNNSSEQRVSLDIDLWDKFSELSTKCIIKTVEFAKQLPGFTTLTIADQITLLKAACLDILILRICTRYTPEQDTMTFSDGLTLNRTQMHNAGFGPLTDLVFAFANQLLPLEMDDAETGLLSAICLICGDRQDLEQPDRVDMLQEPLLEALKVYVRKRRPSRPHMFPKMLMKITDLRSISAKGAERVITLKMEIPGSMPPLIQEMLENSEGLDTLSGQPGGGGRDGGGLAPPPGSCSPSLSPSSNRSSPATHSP

[5] = molecular target: T5, Peroxisome proliferator-activated receptor gamma (Homo sapiens) (UniProt P37231); assay: Activation of human PPAR-gamma LBD expressed in HEK293T cells assessed as induction of receptor activation at 10 uM incubated for 12 to 14 hrs by luciferase reporter gene assay; format: cell-based; conditions: HEK-293T
T5 sequence (whole entry): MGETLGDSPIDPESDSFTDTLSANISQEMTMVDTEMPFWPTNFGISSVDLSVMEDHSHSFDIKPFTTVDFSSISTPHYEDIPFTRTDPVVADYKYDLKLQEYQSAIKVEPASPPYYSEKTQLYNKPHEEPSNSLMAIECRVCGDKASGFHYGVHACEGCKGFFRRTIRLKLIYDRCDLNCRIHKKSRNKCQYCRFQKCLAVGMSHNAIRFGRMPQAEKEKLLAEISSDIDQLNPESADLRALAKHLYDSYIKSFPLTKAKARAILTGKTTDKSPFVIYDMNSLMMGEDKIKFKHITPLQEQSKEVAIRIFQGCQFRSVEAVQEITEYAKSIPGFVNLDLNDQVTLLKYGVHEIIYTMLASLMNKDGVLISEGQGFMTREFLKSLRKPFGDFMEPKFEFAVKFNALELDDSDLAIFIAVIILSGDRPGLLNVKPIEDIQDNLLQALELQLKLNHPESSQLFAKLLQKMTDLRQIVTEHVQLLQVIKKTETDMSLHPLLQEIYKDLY

[6] = molecular target: T2, Bile acid receptor (Homo sapiens); assay: Activation of human FXR LBD expressed in HEK293T cells assessed as induction of receptor activation at 1 to 3 uM incubated for 12 to 14 hrs by luciferase reporter gene assay; format: cell-based; conditions: HEK-293T
[7] = molecular target: T3, Peroxisome proliferator-activated receptor delta (Homo sapiens); assay: Activation of human PPAR-delta LBD expressed in HEK293T cells assessed as induction of receptor activation at 1 to 3 uM incubated for 12 to 14 hrs by luciferase reporter gene assay; format: cell-based; conditions: HEK-293T
[8] = molecular target: T2, Bile acid receptor (Homo sapiens); assay: Activation of FXR in human HepG2 cells assessed as increase in BSEP mRNA expression at 3 uM incubated for 8 hrs by quantitative real time PCR analysis; format: cell-based
[9] = molecular target: T2, Bile acid receptor (Homo sapiens); assay: Activation of FXR in human HepG2 cells assessed as increase in SHP mRNA expression at 3 uM incubated for 8 hrs by quantitative real time PCR analysis; format: cell-based
HepG2 = assay: Toxicity in human HepG2 cells assessed as reduction in cell viability up to 100 uM incubated for 48 hrs by WST1 assay; format: cell-based; conditions: hepg2, 48 h

CC(C)c1onc(-c2c(Cl)cccc2Cl)c1COc1ccc(CNc2ccc(CC(=O)O)cc2)c(Cl)c1
EC50 (Bile acid receptor): 940 nM | %max [1]: 31% | Activity [2]: Active | Activity [3]: Active | Activity [4]: inactive | Activity [5]: inactive | Activity [6]: Active | Activity [7]: Active | Activity [8]: Active | Activity [9]: Active | Activity (HepG2): Non-Toxic

From ChEMBL document CHEMBL4627415, “Design and Structural Optimization of Dual FXR/PPARδ Activators” (J Med Chem, 2020)
